Source: patent US12472226B2, “Cell-permeable peptide” (priority 2019, dated 2025)
Non-standard residues stand in square brackets, D forms with d. Primed or numbered codes have the meaning given here. No end group written: not given here. *: point of attachment. FITC = O=C1OC2(c3ccc(O)cc3Oc3cc(O)ccc32)c2ccc(NC(=S)*)cc21; PEG4′ = not defined here; PEG5′ = not defined here; Ahx = NCCCCCC(=O)O

Columns and labels:
HT-1080 cells [1] = experiment: Test of inducing cell-death in vitro (Calcein-AM/PI dead cell rate); format: cell-based, human; conditions: 9th day
Excerpt: Human fibrosarcoma-derived HT-1080 cells (HT-1080 cells, JCRB cell bank) were used as cancer cells in the test for monitoring changes in mitochondrial membrane potential. HT-1080 cells, human osteosarcoma cell line Hos cells (Hos cells, JCRB cell bank), human histiocytic lymphoma/macrophage U937 cells (U937 cells, JCRB cell bank), human myeloid leukemia HL-60 cells (HL-60 cells, JCRB cell bank), acute monocytic leukemia THP-1 cells (THP-1 cells, JCRB cell bank), human alveolar basal epithelial adenocarcinoma cell A549 cells (A549 cells, Cell Resource Center for Biomedical Research, Institute of Development, Aging and Cancer, Tohoku University), human pancreatic carcinoma cells (MIA Paca 2 cells, Cell Resource Center for Biomedical Research, Institute of Development, Aging and Cancer, Tohoku University) and well differentiated human liver carcinoma-derived cell line HuH7 cells (HuH7 cells, Cell Resource Center for Biomedical Research, Institute of Development, Aging and Cancer, Tohoku University) were used as cancer cells in an in vitro cell-death induction test of cancer cells and a nuclear transport test of Example 2. Normal human gingival fibroblast cells Gin-1 (Gin-1 cells, DS Pharma Biomedical) were used as a control. The above-described cells were each inoculated into a 96-well culture plate (Falcon) at 5,000 cells/[…] and subjected to the following tests.
The peptide of SEQ ID NO: 1 labeled with FITC (Example 2) was used for the test of inducing cell-death in vitro in cancer cells. It was prepared the test example to which 100 μL of Example 2 and further 10% FBS were added and cultured for 9 days under conditions of 200 μL of serum-supplemented medium (Alpha modification of Eagle's MEM (α-MEM) (Thermo Fisher Scientific)+10% FBS). Furthermore, it was also produced the test example that was cultured for 21 days with the whole amount of Example 2-supplemented medium replaced every 7 days. As a control, the cells were cultured in a serum-supplemented medium (α-MEM+10% FBS) without addition and were used. A supernatant was removed after the completion of the culture. The cells were washed once with PBS and stained in PBS to which a fluorescent dye for living cell staining Calcein-AM (DOJINDO LABORATORIES) (final concentration: 0.1 μg/mL) and a fluorescent dye for dead cell staining Propidium Iodide (PI) (DOJINDO LABORATORIES) (final concentration: 0.3 μg/mL) were added, at 37° C. in a 5% CO2 cell incubator for 30 minutes. The living cells and dead cells were separately stained with Calcein-AM and PI, respectively and imaged with the confocal laser scanning microscope LSM800. Next, the dead cell rate relative to the number of total cells was analyzed using ImageJ.
The results are represented by the average value of the dead cell rate (the number red cells stained with IP/the number of total cells×100(%))±standard deviation (SD). In FIG. 2A, the vertical axis represents the rate of cell death when each cell was cultured with Example 2 (50 μg/mL) for 9 days and the horizontal axis represents various types of cells. The increase in the dead cell rate of the Gin-1 cells was not observed.
The concentrations of Examples 2 and 4 to 6 were adjusted to 12.5, 25, 50 and 100 μg/mL, respectively and then administrated to the HT-1080 cells for 9 days tested by the same method as in Test Example 2A. The cell staining and subsequent analyses of the dead cell rate relative to the number of total cells were performed in the same manner as Test Example 2A.

HT-1080 cells [2] = experiment: Test of monitoring changes in mitochondrial membrane potential (JC-1 apoptosis rate); format: cell-based, human; conditions: 7 days, Example 1 at 25, 50 and 100 μg/mL, Comparative Examples at 50 and 100 μg/mL
Protocol: (§1) Human fibrosarcoma-derived HT-1080 cells (HT-1080 cells, JCRB cell bank) were used as cancer cells in the test for monitoring changes in mitochondrial membrane potential. […]
(§2) The synthetic peptide of Example 1 or Comparative Examples 1 to 3 was individually added to the HT-1080 cells, and the cells were cultured in a serum-supplemented medium (α-MEM+10% FBS). […] Further, the cells were washed once with PBS followed by the addition of 100 μL of PBS, scanned with a confocal laser scanning microscope LSM800 (Zeiss) and then analyzed with ImageJ. […]

Gin-1 cells = experiment: Test of monitoring changes in mitochondrial membrane potential (JC-1 apoptosis rate), normal cells; format: cell-based, human; conditions: 50 μg/mL
Protocol: as §1, §2

HT-1080 cells tumor = experiment: Delivery test on anticancer agent in tumor-bearing mice; format: in vivo, BALB/c nude mouse
Protocol: HT-1080 cells (1×10^7 cells/200 μL) were subcutaneously implanted into the back of 5 week-old BALB/c nude mouse (CHARLES RIVER LABORATORIES JAPAN, INC.). A tumor after the implantation was confirmed to reach 30 to 60 mm^3, and then they were subjected to the following tests.
Example 2 was dissolved in the sterile water and adjusted to be 200 μg/200 μL by the addition of 2-time concentrated α-MEM (not containing glutamine or an antibiotic). It was intraperitoneally administered to tumor-bearing mice at 10 mg/kg every 3 days. In the control administration group, 200 μL of 1-time concentrated α-MEM was intraperitoneally administered to tumor-bearing mice every 3 days. The mice were weighed on DRETEC weighing scale (DRETEC CO., Ltd., Japan) and the tumor size (estimation volume (shortest diameter×longer diameter×height×pi/6 mm^3)) was measured with a vernier caliper (maximum: 150 mm, minimum: 0.05 mm) (MITUTOYO, Japan) every 3 days.
Example 3 and Comparative Example 4 (Dox) were treated to be at 5 or 1.2 mg/kg, respectively in the same manner as that of Example 2, and administered to the tumor-bearing mice. The tumor size was measured by the same procedure as above.
FIG. 7 is a graph illustrating transitions of tumor size in the control (N=2), Comparative Example 4(N=2) and Example 3 administration group (N=2). The vertical axis represents the average value of tumor size±standard deviation (SD) and the horizontal axis represents the days after administration. […] The tumor size day 24 grew to about 2,000 mm^3 in the control and Comparative Example 4 administration group. […] That is, the tumors largely shrank due to not only anticancer effect of the peptide itself but also the effect of the anticancer agent. The peptides of the present invention specifically act on the target cells compared with the single administration of the anticancer agent and have high toxicity against the cancer cells.

## Example 5: peptide of SEQ ID NO: 2 labeled with FITC via an Ahx linker at the N-terminus ({FITC}-[Ahx]KDNRGNLLQCICTGNGRGEWKC; cysteine pairing not given here)
HT-1080 cells [1]; 50 or 100 μg/mL
  dead cell rate: ≥ 50%

## KDNRGNLLQCVCTGNGRGEWKC (This is derived from a part of CD ligand.; BINDING (3)..(6); BINDING (13)..(17)) [Example 1]
HT-1080 cells [2]
  increase in apoptosis rate (number of green cell dyed with JC1/number of total cells): increase in apoptosis rate of the HT-1080 cells was confirmed
Gin-1 cells
  increase in apoptosis rate: not observed

## Example 6: peptide of SEQ ID NO: 6 labeled with FITC via an Ahx linker at the N-terminus ({FITC}-[Ahx]KHGLYNLKQCKMSLNGQRGECWC; cysteine pairing not given here)
HT-1080 cells [1]; 12.5 μg/mL substantially same as 100 μg/mL
  dead cell rate: about 35%

## Example 3 ({doxorubicin-PEG5′-DBCO‑azide-PEG4′}-KDNRGNLLQCVCTGNGRGEWKC; cysteine pairing not given here)
HT-1080 cells tumor; 5 mg/kg, between days 18 and 24, N=2
  suppression of tumor proliferation compared with the control and Comparative Example 4 administration group: significant difference at the level of 1%
HT-1080 cells tumor; 5 mg/kg, to the day 24
  suppression effect on tumor: suppression effect was confirmed

## COc1cccc2c1C(=O)c1c(O)c3c(c(O)c1C2=O)C[C@@](O)(C(=O)CO)C[C@@H]3O[C@H]1C[C@H](N)[C@H](O)[C@H](C)O1 [Comparative Example 4, Doxorubicin, reference compound]
HT-1080 cells tumor; 1.2 mg/kg, day 24, N=2
  tumor size: about 2,000 mm^3
